# Laboratory results as given in the supplement of paper PMC11208160.
# Test: recombinant UMI read abundance after kanamycin selection (control-corrected) (log10(CPM+1)); higher = more efficient recombination; extreme values may be limits of the assay; sequences stand for … in AGTGCAGAGAAAATCGGCCAGTTTTCTCTGCCTGCAGTCCGCATGCCGTGGGACCCCTTGGGTTCTAACCTGTTGCCTAGATTTATGCAGCGGACTGCCTTTCTCCCAAAGTGATAAACCGG…AGGTTGGTTTCACT; site = the 11-nt donor
# Summary of the method: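 For the IS621 bridge recombinase, a pooled Escherichia coli screen tested donor and donor-binding-loop pairs. Cells received the pair library together with a target plasmid encoding a fixed target and T7-inducible recombinase, then went onto IPTG (0.07 mM) plus kanamycin or unselected plates in duplicate. After PCR across the donor–target junction and sequencing, recombinant UMI counts were normalized to CPM, averaged, and scaled by control-derived factors. Each value is given as log10(CPM+1).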
row,Sequence,recombinant UMI read abundance (log10)
1,GCCTCGCCATGGACCGGTTTTCCCGGTAATCCGTATTTGGT (site GCCTCGCCTAC),0
2,ATGGCAACATGGACCGGTTTTCCCGGTAATCCGTATTTGTG (site ATGGCAACTCA),0.02
3,CTTCTCTCATGGACCGGTTTTCCCGGTAATCCGTATTTGTA (site CTTCTCTCTGA),0.448
4,GTTAGAACATGGACCGGTTTTCCCGGTAATCCGTATTTGGC (site GATAGAACTGC),0
5,TATCCTGCATGGACCGGTTTTCCCGGTAATCCGTATTTGAC (site TATCCTGCTGT),0
6,CAACGCACATGGACCGGTTTTCCCGGTAATCCGTATTTGTT (site CAACGCACTAA),1.62
7,AACAAGACATGGACCGGTTTTCCCGGTAATCCGTATTTGAC (site AACAAGACTGT),2.21
8,GGGCATGCATGGACCGGTTTTCCCGGTAATCCGTATTTGGT (site GGGCATGCTAC),1.33
9,GTAGTCGCATGGACCGGTTTTCCCGGTAATCCGTATTTGTG (site GTAGTCGCTCG),1.42
10,CGATCATCATGGACCGGTTTTCCCGGTAATCCGTATTTGCT (site CAATCACCTAG),0
11,AGCCTAGCATGGACCGGTTTTCCCGGTAATCCGTATTTGCT (site AGCCTAGCTAA),0.0111
12,TGGCCAGCATGGACCGGTTTTCCCGGTAATCCGTATTTGGC (site TGGCCCGCTGC),0
13,GGAGGACCATGGACCGGTTTTCCCGGTAATCCGTATTTGGG (site TGAGGACCTCC),0.00615
14,CCCCACACATGGACCGGTTTTCCCGGTAATCCGTATTTGTA (site ACCCACACTTA),0.0144
15,GGGCATGCATGGACCGGTTTTCCCGGTAATCCGTATTTGAG (site GGGCATGCTCT),1.57
16,CGTAGAACATGGACCGGTTTTCCCGGTAATCCGTATTTGCC (site CGTAGAACTGG),2.75

row,Sequence,recombinant UMI read abundance (log10)
1,AGTTTCCCATGGACCGGTTTTCCCGGTAATCCGTATTTGTG (site AGCTTCCCTCA),0.0227
2,ATAAGGCCATGGACCGGTTTTCCCGGTAATCCGTATTTGAG (site ATAAGGCCTCT),0.325
3,TCCACCACATGGACCGGTTTTCCCGGTAATCCGTATTTGCG (site TCCACCGCTCG),0
4,GACAAACCATGGACCGGTTTTCCCGGTAATCCGTATTTGGT (site GGCAAACCTAC),0
5,CTGTGCCCATGGACCGGTTTTCCCGGTAATCCGTATTTGCC (site CTGTGCCCTGG),1.34
6,GTATGCACATGGACCGGTTTTCCCGGTAATCCGTATTTGTG (site GTATGCACTCA),1.34
7,AGAAGGCCATGGACCGGTTTTCCCGGTAATCCGTATTTGAC (site AGAAGGCCTGT),0
8,CGCGAGTCATGGACCGGTTTTCCCGGTAATCCGTATTTGCC (site CGGGAGTCTGG),0
9,AACCGTCCATGGACCGGTTTTCCCGGTAATCCGTATTTGAT (site AACCGTGCTAT),0.0154
10,CGGAATCCATGGACCGGTTTTCCCGGTAATCCGTATTTGTT (site CGGAATCCTGA),1.65
11,AGCCTAGCATGGACCGGTTTTCCCGGTAATCCGTATTTGCT (site AGCCTAGCTAT),0
12,CCGTTTACATGGACCGGTTTTCCCGGTAATCCGTATTTGCA (site CCGTTTACTAG),0
13,AACGGTACATGGACCGGTTTTCCCGGTAATCCGTATTTGGG (site AACGGTACTCC),0.0069
14,CACTCCTCATGGACCGGTTTTCCCGGTAATCCGTATTTGCC (site GACTCCTCTGG),0
15,GAAGTTTCATGGACCGGTTTTCCCGGTAATCCGTATTTGTT (site GAAGCTTCTAA),0.43
16,GTGTACGCATGGACCGGTTTTCCCGGTAATCCGTATTTGTC (site GTGTACGCTGA),2.81
